Reference: patent US9447136B2, “Semisynthetic derivatives of Nystatin A1” (BLIRT S.A., priority 2012, dated 2016)

How the values were obtained:
Candida krusei DSM 6128 = experiment: Antifungal activity in vitro, serial dilution in RPMI 1640; format: cell-based; conditions: Table 2A; RPMI 1640, pH 7.0
Method: (§1) For the determination of antifungal activity in vitro we used method of serial dilution in buffered medium RPMI 1640, pH 7.0, in a 96-wells microplates, according to the standard procedure (National Committee for Clinical Laboratory Standards. Reference method for broth dilution antifungal susceptibility testing of yeast, approved standard, 2nd ed. M27-A2 vol. 22 Wayne, Pa., 2002). The optical density of cells suspension was measured using a microplates reader (Victor^3, Perkin-Elmer) at the wavelength λ=531 nm (A531). On the basis of obtained results the diagrams of relation between A531 values and concentration of examined compound were made. From these graphs, the IC50 values were read, which were the interpolated concentrations of a tested compound, at which the A531 value was exactly 50% of the A531 value for the control sample. Moreover, MIC values, that are the lowest concentration of tested compound at which the A531 value were at most 20% of the A531 value measured for the control sample.

[1] = system: Candida lusitaniae DSM 70102; experiment: as above; format: cell-based; conditions: Table 2A; RPMI 1640, pH 7.0
Method: as §1

[2] = system: Candida albicans ATCC 10231; experiment: as above; format: cell-based; conditions: Table 2A, RPMI 1640, pH 7.0; for Antifungal activity Candida albicans ATCC 10231 IC50: A531 50% of control; for Antifungal activity Candida albicans ATCC 10231 MIC: A531 at most 20% of control
Method: as §1

[3] = system: Candida tropicalis KKP 334; experiment: as above; format: cell-based; conditions: Table 2A; RPMI 1640, pH 7.0
Method: as §1

[4] = system: Candida glabrata DSM 11226; experiment: as above; format: cell-based; conditions: Table 2A; RPMI 1640, pH 7.0
Method: as §1

[5] = system: Saccharomyces cerevisiae ATCC 9763; experiment: as above; format: cell-based; conditions: Table 2A; RPMI 1640, pH 7.0; A531 at most 20% of control
Method: as §1

Human erythrocytes = experiment: Hemotoxicity (hemolytic activity); conditions: human erythrocytes
Method: The hemotoxicity determination were carried out by the serial dilutions method, according to the procedure described earlier (Ślisz, M., et al., E., J Antibiot 57: 669-678 (2004)). Human erythrocytes were suspensed in the solution of saline to obtain a cell density of suspension 2×10^7/ml. Suitable amounts of diluted solutions of compounds were added to the cell suspension in tubes and were incubated at 37° C. for 30 minutes and then centrifuged (1700×g, 10 min, 4° C.). The concentration of hemoglobin in supernatant after centrifugation of erythrocytes suspension were determined by measuring the absorbance at wavelength λ=540 nm (A540). The maximum level of hemolysis was obtained after incubation of cells suspension in the presence of 0.1% Tritone X-100 (control sample). […] From these graphs, the EH50 values were read which are the interpolated concentrations of compound, for which the A540 value is exactly 50% of the A540 value measured for the control sample.

## N-{3-[2-(morpholin-1-yl)ethyl]thioureidyl}nystatin A1 [Compound N13]
Candida krusei DSM 6128
  Antifungal activity Candida krusei DSM 6128 MIC: 16 µg/mL
[1]
  Antifungal activity Candida lusitaniae DSM 70102 MIC: 8 µg/mL
[2]
  Antifungal activity Candida albicans ATCC 10231 IC50: 3.88 µg/mL
  Antifungal activity Candida albicans ATCC 10231 MIC: 8 µg/mL
[3]
  Antifungal activity Candida tropicalis KKP 334 MIC: 8 µg/mL
[4]
  Antifungal activity Candida glabrata DSM 11226 MIC: 16 µg/mL
[5]
  Antifungal activity Saccharomyces cerevisiae ATCC 9763 MIC: 8 µg/mL

## C[C@@H]1[C@H](O)[C@@H](C)/C=C/C=C/CC/C=C/C=C/C=C/C=C/[C@H](O[C@@H]2O[C@H](C)[C@@H](O)[C@H](NC(=S)NCCN3CCCC3)[C@@H]2O)C[C@@H]2O[C@](O)(C[C@@H](O)C[C@@H](O)[C@H](O)CC[C@@H](O)C[C@@H](O)CC(=O)O[C@H]1C)C[C@H](O)[C@H]2C(=O)O [Compound N16, N-{3-[2-(pyrrolidin-1-yl)ethyl]thioureidyl}nystatin A1]
Candida krusei DSM 6128
  Antifungal activity Candida krusei DSM 6128 MIC: 8 µg/mL
[1]
  Antifungal activity Candida lusitaniae DSM 70102 MIC: 4 µg/mL
[2]
  Antifungal activity Candida albicans ATCC 10231 IC50: 3.04 µg/mL
  Antifungal activity Candida albicans ATCC 10231 MIC: 4 µg/mL
[3]
  Antifungal activity Candida tropicalis KKP 334 MIC: 4 µg/mL
[4]
  Antifungal activity Candida glabrata DSM 11226 MIC: 8 µg/mL
[5]
  Antifungal activity Saccharomyces cerevisiae ATCC 9763 MIC: 4 µg/mL

## C[C@@H]1[C@H](O)[C@@H](C)/C=C/C=C/CC/C=C/C=C/C=C/C=C/[C@H](O[C@@H]2O[C@H](C)[C@@H](O)[C@H](NC3CC(=O)N(CCCN(C)C)C3=O)[C@@H]2O)C[C@@H]2O[C@](O)(C[C@@H](O)C[C@@H](O)[C@H](O)CC[C@@H](O)C[C@@H](O)CC(=O)O[C@H]1C)C[C@H](O)[C@H]2C(=O)O (stereo partly drawn) [Compound N6, N—[N′-3-(N″,N″-dimethylamino)propylsuccinimidyl]nystatin A1]
Candida krusei DSM 6128
  Antifungal activity Candida krusei DSM 6128 MIC: 16 µg/mL
[1]
  Antifungal activity Candida lusitaniae DSM 70102 MIC: 4 µg/mL
[2]
  Antifungal activity Candida albicans ATCC 10231 IC50: 5.52 µg/mL
  Antifungal activity Candida albicans ATCC 10231 MIC: 8 µg/mL
[3]
  Antifungal activity Candida tropicalis KKP 334 MIC: 8 µg/mL
[4]
  Antifungal activity Candida glabrata DSM 11226 MIC: 16 µg/mL
[5]
  Antifungal activity Saccharomyces cerevisiae ATCC 9763 MIC: 8 µg/mL

## CCN(CC1(O)OCC(O)C(O)C1O)C1C(O)C(C)OC(OC2C=CC=CC=CC=CCCC=CC=CC(C)C(O)C(C)C(C)OC(=O)CC(O)CC(O)CC(O)CCC(O)C(O)CC3(O)CC(O)C(C(=O)O)C(C2)O3)C1O (stereo not drawn) [Compound N29, N-fructosyl-N-ethylnystatin A1]
Candida krusei DSM 6128
  Antifungal activity Candida krusei DSM 6128 MIC: 16 µg/mL
[1]
  Antifungal activity Candida lusitaniae DSM 70102 MIC: 8 µg/mL
[2]
  Antifungal activity Candida albicans ATCC 10231 IC50: 3.56 µg/mL
  Antifungal activity Candida albicans ATCC 10231 MIC: 8 µg/mL
[3]
  Antifungal activity Candida tropicalis KKP 334 MIC: 8 µg/mL
[4]
  Antifungal activity Candida glabrata DSM 11226 MIC: 16 µg/mL
[5]
  Antifungal activity Saccharomyces cerevisiae ATCC 9763 MIC: 8 µg/mL

## C[C@@H]1[C@H](O)[C@@H](C)/C=C/C=C/CC/C=C/C=C/C=C/C=C/[C@H](O[C@@H]2O[C@H](C)[C@@H](O)[C@H](NC(=S)NCCN3CCN(C)CC3)[C@@H]2O)C[C@@H]2O[C@](O)(C[C@@H](O)C[C@@H](O)[C@H](O)CC[C@@H](O)C[C@@H](O)CC(=O)O[C@H]1C)C[C@H](O)[C@H]2C(=O)O [Compound N15, N-{3-[2-(4-methylpiperazin-1-yl)ethyl]thioureidyl}nystatin A1]
Candida krusei DSM 6128
  Antifungal activity Candida krusei DSM 6128 MIC: 16 µg/mL
[1]
  Antifungal activity Candida lusitaniae DSM 70102 MIC: 4 µg/mL
[2]
  Antifungal activity Candida albicans ATCC 10231 IC50: 5.74 µg/mL
  Antifungal activity Candida albicans ATCC 10231 MIC: 8 µg/mL
[3]
  Antifungal activity Candida tropicalis KKP 334 MIC: 8 µg/mL
[4]
  Antifungal activity Candida glabrata DSM 11226 MIC: 16 µg/mL
[5]
  Antifungal activity Saccharomyces cerevisiae ATCC 9763 MIC: 8 µg/mL

## N-{3-[3-(imidazo-1-yl)propyl]thioureidyl}nystatin A1 [Compound N20]
Candida krusei DSM 6128
  Antifungal activity Candida krusei DSM 6128 MIC: 16 µg/mL
[1]
  Antifungal activity Candida lusitaniae DSM 70102 MIC: 8 µg/mL
[2]
  Antifungal activity Candida albicans ATCC 10231 IC50: 6.47 µg/mL
  Antifungal activity Candida albicans ATCC 10231 MIC: 8 µg/mL
[3]
  Antifungal activity Candida tropicalis KKP 334 MIC: 8 µg/mL
[4]
  Antifungal activity Candida glabrata DSM 11226 MIC: 16 µg/mL
[5]
  Antifungal activity Saccharomyces cerevisiae ATCC 9763 MIC: 8 µg/mL

## CC1OC(O[C@H]2/C=C/C=C/C=C/C=C/CC/C=C/C=C/[C@H](C)[C@@H](O)[C@@H](C)[C@H](C)OC(=O)C[C@H](O)C[C@H](O)C[C@H](O)CC[C@@H](O)[C@H](O)CC3(O)C[C@H](O)[C@@H](C(=O)O)[C@H](C2)O3)C(O)C(NC2CC(=O)N(CCN3CCN(C)CC3)C2=O)C1O (stereo partly drawn) [Compound N9, N—[N′-2-(4-methylpiperazin-1-yl)ethylsuccinimidyl]nystatin A1]
Candida krusei DSM 6128
  Antifungal activity Candida krusei DSM 6128 MIC: 16 µg/mL
[1]
  Antifungal activity Candida lusitaniae DSM 70102 MIC: 4 µg/mL
[2]
  Antifungal activity Candida albicans ATCC 10231 IC50: 5.62 µg/mL
  Antifungal activity Candida albicans ATCC 10231 MIC: 8 µg/mL
[3]
  Antifungal activity Candida tropicalis KKP 334 MIC: 8 µg/mL
[4]
  Antifungal activity Candida glabrata DSM 11226 MIC: 16 µg/mL
[5]
  Antifungal activity Saccharomyces cerevisiae ATCC 9763 MIC: 8 µg/mL

## CC1C=CC=CCCC=CC=CC=CC=CC(OC2OC(C)C(O)C(N(CCCN(C)C)CC3(O)OCC(O)C(O)C3O)C2O)CC2OC(O)(CC(O)C(O)CCC(O)CC(O)CC(O)CC(=O)OC(C)C(C)C1O)CC(O)C2C(=O)O (stereo not drawn) [Compound N30, N-fructosyl-N-[3-(N′,N′-dimethylamin)propyl]nystatin A1]
Candida krusei DSM 6128
  Antifungal activity Candida krusei DSM 6128 MIC: 16 µg/mL
[1]
  Antifungal activity Candida lusitaniae DSM 70102 MIC: 8 µg/mL
[2]
  Antifungal activity Candida albicans ATCC 10231 IC50: 5.79 µg/mL
  Antifungal activity Candida albicans ATCC 10231 MIC: 8 µg/mL
[3]
  Antifungal activity Candida tropicalis KKP 334 MIC: 16 µg/mL
[4]
  Antifungal activity Candida glabrata DSM 11226 MIC: 16 µg/mL
[5]
  Antifungal activity Saccharomyces cerevisiae ATCC 9763 MIC: 8 µg/mL

## C[C@@H]1[C@H](O)[C@@H](C)/C=C/C=C/CC/C=C/C=C/C=C/C=C/[C@H](O[C@@H]2O[C@H](C)[C@@H](O)[C@H](NC(=S)NCCN(C)C)[C@@H]2O)C[C@@H]2O[C@](O)(C[C@@H](O)C[C@@H](O)[C@H](O)CC[C@@H](O)C[C@@H](O)CC(=O)O[C@H]1C)C[C@H](O)[C@H]2C(=O)O [Compound N18, N-{3-[2-(N,N-dimethylamino)ethyl]thioureidyl}nystatin A1]
Candida krusei DSM 6128
  Antifungal activity Candida krusei DSM 6128 MIC: 8 µg/mL
[1]
  Antifungal activity Candida lusitaniae DSM 70102 MIC: 4 µg/mL
[2]
  Antifungal activity Candida albicans ATCC 10231 IC50: 2.97 µg/mL
  Antifungal activity Candida albicans ATCC 10231 MIC: 4 µg/mL
[3]
  Antifungal activity Candida tropicalis KKP 334 MIC: 4 µg/mL
[4]
  Antifungal activity Candida glabrata DSM 11226 MIC: 8 µg/mL
[5]
  Antifungal activity Saccharomyces cerevisiae ATCC 9763 MIC: 4 µg/mL

## C[C@@H]1[C@H](O)[C@@H](C)/C=C/C=C/CC/C=C/C=C/C=C/C=C/[C@H](O[C@@H]2O[C@H](C)[C@@H](O)[C@H](NC(=O)[C@@H](N)Cc3ccc([N+](=O)[O-])cc3)[C@@H]2O)C[C@@H]2O[C@](O)(C[C@@H](O)C[C@@H](O)[C@H](O)CC[C@@H](O)C[C@@H](O)CC(=O)O[C@H]1C)C[C@H](O)[C@H]2C(=O)O [Compound N40, N-L-(4-nitrophenyl)alanylnystatin A1]
Candida krusei DSM 6128
  Antifungal activity Candida krusei DSM 6128 MIC: 16 µg/mL
[2]
  Antifungal activity Candida albicans ATCC 10231 IC50: 5.56 µg/mL
  Antifungal activity Candida albicans ATCC 10231 MIC: 8 µg/mL
[3]
  Antifungal activity Candida tropicalis KKP 334 MIC: 8 µg/mL
[4]
  Antifungal activity Candida glabrata DSM 11226 MIC: 16 µg/mL
[5]
  Antifungal activity Saccharomyces cerevisiae ATCC 9763 MIC: 8 µg/mL
Human erythrocytes; 37° C., 30 minutes, concentration causing 50% hemolysis, maximum concentration 300 μg/ml
  Hemotoxicity BEH50: >300 µg/mL
Human erythrocytes; 300 μg ml^−1
  % of hemolysis at the concentration 300 μg ml^−1: 7.45%
Human erythrocytes; concentration causing 10% of hemolysis
  EH10: >300 µg/mL
